Measured values reported in ChEMBL document CHEMBL5620374, “Synthesis and bioevaluation of novel stilbene-based derivatives as tubulin/HDAC dual-target inhibitors with potent antitumor activities in vitro and in vivo” (Eur J Med Chem, 2023).
Activity calls are given as the source filed them. The calls are words filed in the database; no cut-off is given here.

Columns and labels:
Histone deacetylase 3 = Histone deacetylase 3 (Homo sapiens, UniProt O15379); assay: Inhibition of HDAC3 derived from human HeLa cell extract using Ac-Leu-Gly-Lys (Ac)-AMC as substrate by fluorescence based assay; type: cell-free
[1] = target: T1, Protein deacetylase HDAC6 (Homo sapiens, UniProt Q9UBN7); assay: Inhibition of HDAC6 derived from human HeLa cell extract using Ac-Leu-Gly-Lys (Ac)-AMC as substrate by fluorescence based assay; type: cell-free
T1 sequence (Q9UBN7 whole entry): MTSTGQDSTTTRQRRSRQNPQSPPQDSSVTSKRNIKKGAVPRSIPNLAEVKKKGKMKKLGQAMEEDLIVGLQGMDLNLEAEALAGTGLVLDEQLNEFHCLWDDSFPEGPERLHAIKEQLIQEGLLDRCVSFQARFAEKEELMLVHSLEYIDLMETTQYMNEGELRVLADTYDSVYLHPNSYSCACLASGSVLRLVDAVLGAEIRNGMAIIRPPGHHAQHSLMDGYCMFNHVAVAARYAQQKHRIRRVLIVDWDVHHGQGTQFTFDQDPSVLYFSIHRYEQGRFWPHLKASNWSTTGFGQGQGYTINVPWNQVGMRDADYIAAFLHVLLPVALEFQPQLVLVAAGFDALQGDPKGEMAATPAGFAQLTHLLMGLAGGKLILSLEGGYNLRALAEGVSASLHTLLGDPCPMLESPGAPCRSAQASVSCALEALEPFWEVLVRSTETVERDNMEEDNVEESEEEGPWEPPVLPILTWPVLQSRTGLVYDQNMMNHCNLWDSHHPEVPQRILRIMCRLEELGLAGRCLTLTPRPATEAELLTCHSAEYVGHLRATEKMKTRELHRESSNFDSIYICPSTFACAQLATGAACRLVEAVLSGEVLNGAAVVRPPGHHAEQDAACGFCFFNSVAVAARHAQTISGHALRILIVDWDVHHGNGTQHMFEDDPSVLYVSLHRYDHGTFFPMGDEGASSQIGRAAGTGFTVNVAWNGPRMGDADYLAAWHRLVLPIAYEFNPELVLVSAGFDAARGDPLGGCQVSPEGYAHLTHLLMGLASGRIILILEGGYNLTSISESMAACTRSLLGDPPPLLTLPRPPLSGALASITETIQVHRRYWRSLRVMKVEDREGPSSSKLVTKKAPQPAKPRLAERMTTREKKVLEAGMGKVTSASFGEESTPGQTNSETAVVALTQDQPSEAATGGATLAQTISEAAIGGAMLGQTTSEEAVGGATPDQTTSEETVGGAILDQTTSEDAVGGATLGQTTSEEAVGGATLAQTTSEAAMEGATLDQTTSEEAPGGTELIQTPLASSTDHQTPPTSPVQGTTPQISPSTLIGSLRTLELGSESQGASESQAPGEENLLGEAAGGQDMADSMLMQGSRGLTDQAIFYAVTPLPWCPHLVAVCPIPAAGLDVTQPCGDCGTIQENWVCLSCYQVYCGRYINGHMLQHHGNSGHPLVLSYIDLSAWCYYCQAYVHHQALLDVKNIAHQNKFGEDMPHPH

K562 [2] = assay: Induction of cell cycle arrest at G1 phase in human K562 cells at 2 nM incubated for 48 hrs by PI staining based flow cytometry (reference value: 62.08 +/- 0.40 %); type: functional
K562 [3] = assay: Induction of cell cycle arrest at S phase in human K562 cells at 2 nM incubated for 48 hrs by PI staining based flow cytometry (reference value: 22.56 +/- 0.47 %); type: functional
K562 [4] = assay: Induction of cell cycle arrest at G2 phase in human K562 cells at 4 nM incubated for 48 hrs by PI staining based flow cytometry (Rvb =15.36 +/- 0.46 %); type: functional
K562 [5] = assay: Effect on cell cycle in human K562 cells assessed as decrease in Cdc25c level incubated for 24 hrs by Western blot analysis; type: functional, cell-based; details: dose 2-8 nM
K562 [6] = assay: Effect on cell cycle in human K562 cells assessed as decrease in cyclin B1 level incubated for 24 hrs by Western blot analysis; type: functional, cell-based; details: dose 2-8 nM
K562 [7] = assay: Induction of apoptosis in human K562 cells assessed as viable cells at 2 nM incubated for 48 hrs by Annexin V/PI staining based flow cytometry (reference value: 92.52 +/- 0.34 %); type: functional; details: read-out: Activity
K562 [8] = assay: Induction of apoptosis in human K562 cells assessed as early apoptotic cells at 2 nM incubated for 48 hrs by Annexin V/PI staining based flow cytometry (reference value: 1.55 +/- 0.21 %); type: functional
K562 [9] = assay: Induction of apoptosis in human K562 cells assessed as viable cells at 4 nM incubated for 48 hrs by Annexin V/PI staining based flow cytometry (reference value: 92.52 +/- 0.34 %); type: functional; details: read-out: Activity
K562 [10] = assay: Inhibition of mitochondrial membrane potential in human K562 cells assessed as red fluorescence intensity at 8 nM incubated for 48 hrs by JC-1 staining based flow cytometry (reference value: 93.36 +/- 0.21 %); type: functional
K562 [11] = assay: Induction of ROS generation in human K562 cells assessed as DCF-positive cells at 2 nM incubated for 48 hrs by DCF-DA probe based flow cytometry (reference value: 3.87 %); type: functional
K562 [12] = assay: Induction of ROS generation in human K562 cells assessed as DCF-positive cells at 4 nM incubated for 48 hrs by DCF-DA probe based flow cytometry (reference value: 3.87 %); type: functional
K562 [13] = assay: Induction of ROS generation in human K562 cells assessed as DCF-positive cells at 8 nM incubated for 48 hrs by DCF-DA probe based flow cytometry (reference value: 3.87 %); type: functional
HUVEC [14] = assay: Antivascular activity against HUVEC cells assessed as decrease in cell migration at 8 nM incubated for 24 hrs by wound healing assay; type: functional, cell-based; details: Homo sapiens
HUVEC [15] = assay: Inhibition of tube formation in HUVEC cells at 8 nM incubated for 6 hrs by inverted microscopy; type: functional, cell-based; details: Homo sapiens
H22 = assay: Antitumor activity against mouse H22 cells allografted in ICR mouse assessed as tumor growth inhibition at 10 mg/kg, iv qd for 17 days consecutively relative to control; type: functional; details: time 17 day, read-out: TGI
[16] = Toxicity in ICR mouse allografted with mouse H22 cells assessed as body weight reduction at 10 to 20 mg/kg, iv qd for 17 days consecutively; type: organism-based; details: in vivo, dose 10-20 mg/kg, time 17 day
[17] = Toxicity in ICR mouse allografted with mouse H22 cells assessed as toxic sign in heart at 10 to 20 mg/kg, iv qd for 17 days consecutively by H and E staining based analysis; type: organism-based; details: in vivo, dose 10-20 mg/kg, time 17 day
[18] = Toxicity in ICR mouse allografted with mouse H22 cells assessed as toxic sign in kidney at 10 to 20 mg/kg, iv qd for 17 days consecutively by H and E staining based analysis; type: organism-based; details: in vivo, dose 10-20 mg/kg, time 17 day
[19] = Toxicity in ICR mouse allografted with mouse H22 cells assessed as toxic sign in lung at 10 to 20 mg/kg, iv qd for 17 days consecutively by H and E staining based analysis; type: organism-based; details: in vivo, dose 10-20 mg/kg, time 17 day
MDA-MB-231 = assay: cells; details: Homo sapiens, MDA-MB-231, 72 h
Description: Antiproliferative activity against human MDA-MB-231 cells incubated for 72 hrs by MTT assay

Sequence of Histone deacetylase 3 (O15379 whole entry): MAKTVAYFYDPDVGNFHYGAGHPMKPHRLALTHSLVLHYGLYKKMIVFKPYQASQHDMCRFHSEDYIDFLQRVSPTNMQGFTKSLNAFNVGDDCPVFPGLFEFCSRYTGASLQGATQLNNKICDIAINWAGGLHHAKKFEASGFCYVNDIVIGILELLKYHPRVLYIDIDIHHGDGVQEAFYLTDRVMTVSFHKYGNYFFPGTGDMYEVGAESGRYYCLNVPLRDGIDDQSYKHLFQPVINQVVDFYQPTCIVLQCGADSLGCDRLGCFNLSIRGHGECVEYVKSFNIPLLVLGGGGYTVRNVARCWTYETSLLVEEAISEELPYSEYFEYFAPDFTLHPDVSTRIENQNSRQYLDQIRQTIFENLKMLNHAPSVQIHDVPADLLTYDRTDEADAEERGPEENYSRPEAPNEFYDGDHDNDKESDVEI

## C=C(c1ccc(OC)c(OC(F)C(=O)NO)c1)c1cc(C)nc2ccccc12 (configuration not stated)
Histone deacetylase 3
  IC50: 3.55 µM
[1]
  IC50: 459 nM
K562 [2]
  Activity: 56.87%
K562 [3]
  Activity: 22.65%
K562 [4]
  Activity: 23.38%
K562 [5]
  Activity: Dose-Dependent Effect
K562 [6]
  Activity: Dose-Dependent Effect
K562 [7]
  viability at 0.002 µM: 81.2%
K562 [8]
  Activity: 14.52%
K562 [9]
  viability at 0.004 µM: 66.6%
K562 [10]
  Flu intensity: 57.69%
K562 [11]
  Activity: 16.44%
K562 [12]
  Activity: 29.72%
K562 [13]
  Activity: 42.67%
HUVEC [14]
  Activity: Active
HUVEC [15]
  inhibition: Active
H22
  inhibition in vivo at 10 mg/kg: 48%
[16]
  Activity: Non-Toxic
[17]
  Activity: Non-Toxic
[18]
  Activity: Non-Toxic
[19]
  Activity: Non-Toxic
MDA-MB-231
  IC50: 11 nM
